In patent publication US20100144708A1, “HETEROCYCLIC COMPOUNDS CONTAINING NITROGEN ATOMS OR PHARMACEUTICALLY ACCEPTABLE SALTS THEREOF, PROCESS FOR THE PREPARATION THEREOF AND PHARMACEUTICAL COMPOSITION COMPRISING THE SAME FOR TREATMENT OF CANCER” (Korea Research Instititute of Bioscience and Biotechnology, priority 2006, published 2010):

What was measured:
Format in all cases: cell-based, Human
ACHN (kidney cancer) = assay: Test for inhibition of tumor cell growth (SRB), ACHN; conditions: Homo sapiens, ACHN; 48 hours, SRB staining
Description: (§1) Human tumor cell lines, PC-3 (prostate cancer, ATCC, USA), MBA-MB-231 (breast cancer, ATCC, USA), ACHN (kidney cancer, ATCC, USA), and NUGC-3 (gastric cancer, ATCC, USA) were cultured in RPMI 1640 media containing 10% fetal bovine serum (FBS).
(§2) In order to measure anticancer activity, a suitable concentration of cells in RPMI 1640 media containing 5% fetal bovine serum (about 5×10^4 cells/□) was aliquotted in 96-well plates, and cultured in 5% CO2 at 37° C. On day one after aliquoting the cells, before the cells were treated with the compounds, in order to determine their concentration, 50[…] of 50% trichloroacetic acid was added to each well of time zero (T0) plate, and cells were fixed to determine zero point. The cells treated with the compounds were fixed on each well having 50[…] of 50% trichloroacetic acid after 48 hours. The final concentrations of the test compounds were 0.01, 0.03, 0.1, 0.3, and 1[…]/□. The fixed plate was washed with water and dried, and then 100[…] of 0.4% sulphorhodamine B (SRB) dissolved in 0.1% acetic acid was added to the each well to stain the cells. The plate was allowed to stand for 30 minutes, and then washed with 0.1% acetic acid. Then, the plate was dried at room temperature, and treated with 10 mM tris base (pH 10.5) to dissolve staining reagent. An absorbance measured at 540 nm was calculated as a percentage of the control group, and then the concentration of the compound that inhibited tumor cell growth (GI50(□/□)) by 50% was determined.

NUGC-3 (gastric cancer) = assay: Test for inhibition of tumor cell growth (SRB), NUGC-3; conditions: Homo sapiens, NUGC-3; 48 hours, SRB staining
Description: as §1, §2

PC-3 (prostate cancer) = assay: Test for inhibition of tumor cell growth (SRB), PC-3; conditions: Homo sapiens; 48 hours, SRB staining; read-out: GI50 PC-3 (prostate ancer)
Description: as §1, §2

[1] = test system: MBA-MB-231 (breast cancer); assay: Test for inhibition of tumor cell growth (SRB), MBA-MB-231; conditions: Homo sapiens; 48 hours, SRB staining
Description: as §1, §2

| SMILES | GI50 (ACHN (kidney cancer)) [µg/mL] | GI50 (NUGC-3 (gastric cancer)) [µg/mL] | GI50 (PC-3 (prostate cancer)) [µg/mL] | GI50 [1] [µg/mL] |
| --- | --- | --- | --- | --- |
| CCCCCCCCS(=O)(=O)N1CC[N+](C)(Cc2ccccc2)CC1 [Example 62, 1-benzyl-1-methyl-4-(octane-1-sulfonyl)piperazin-1-ium bromide] | > 10 | > 10 | > 10 | > 10 |
| CCCCCCCCCCCS(=O)(=O)N1CC[N+](CC)(Cc2ccccc2)CC1 [Example 64, 1-benzyl-1-ethyl-4-(undecane-1-sulfonyl)piperazin-1-ium bromide] | 1.43 | 0.36 | 0.67 | 2.07 |
| CCCCCCCCCCCS(=O)(=O)N1CC[N+](C)(Cc2ccccc2)CC1 [Example 65, 1-benzyl-1-methyl-4-(undecane-1-sulfonyl)piperazin-1-ium bromide] | 1.16 | 0.37 | 0.42 | 0.82 |
| CCCCCCCCCCCS(=O)(=O)N1CC[N+](C)(Cc2ccc(F)cc2)CC1 [Example 66, 1-(4-fluorobenzyl)-1-methyl-4-(undecane-1-sulfonyl)piperazin-1-ium bromide] | 1.24 | 1.06 | 0.56 | 1.47 |
| C=CC[N+]1(CC)CCN(S(=O)(=O)CCCCCCCCCCCCCC)CC1 [Example 67, 1-allyl-1-ethyl-4-(tetradecane-1-sulfonyl)piperazin-1-ium bromide] | 0.51 | 0.6 | 0.87 | 1.05 |
| CCCCCCCCCCCCCCS(=O)(=O)N1CC[N+](CC)(Cc2ccc(F)cc2)CC1 [Example 68, 1-ethyl-1-(4-fluorobenzyl)-4-(tetradecane-1-sulfonyl)piperazin-1-ium bromide] | 1.19 | 1.05 | 0.71 | 1.59 |
| CCCCCCCCCCCCCCS(=O)(=O)N1CC[N+](C)(Cc2ccccc2)CC1 [Example 70, 1-benzyl-1-methyl-4-(tetradecane-1-sulfonyl)piperazin-1-ium bromide] | 1.11 | 0.53 | 0.49 | 0.87 |
| CCCCCCCCCCCCCCS(=O)(=O)N1CC[N+](C)(Cc2ccc(F)cc2)CC1 [Example 71, 1-(4-fluorobenzyl)-1-methyl-4-(tetradecane-1-sulfonyl)piperazin-1-ium bromide] | 1.42 | 0.82 | 0.65 | 1.14 |
| C=CC[N+]1(CC)CCN(S(=O)(=O)CCCCCCCCCCCCCCCCCC)CC1 [Example 72, 1-allyl-1-ethyl-4-(octadecane-1-sulfonyl)piperazin-1-ium bromide] | 0.71 | 0.57 | 0.73 | 1.37 |
| CCCCCCCCCCCCCCCCCCS(=O)(=O)N1CC[N+](CC)(Cc2ccccc2)CC1 [Example 73, 1-benzyl-1-ethyl-4-(octadecane-1-sulfonyl)piperazin-1-ium bromide] | 1.87 | 0.85 | 0.8 | 1.75 |
| C=CC[N+]1(C)CCN(S(=O)(=O)CCCCCCCCCCCCCCCCCC)CC1 [Example 74, 1-allyl-1-methyl-4-(octadecane-1-sulfonyl)piperazin-1-ium bromide] | 1.25 | 0.85 | 1 | 1.72 |
| CCCCCCCCCCS(=O)(=O)N1CC[N+](C)(C)CC1 [Example 75, 4-(decane-1-sulfonyl)-1,1-dimethyl-piperazin-1-ium iodide] | 4.45 | 3.29 | 1.84 | > 10 |
| CCCCCCCCCCS(=O)(=O)N1CC[N+](C)(Cc2ccccc2)CC1 [Example 76, 1-benzyl-4-(decane-1-sulfonyl)-1-methyl-piperazin-1-ium bromide] | 3.5 | 0.99 | 0.54 | 4.02 |
| C=CC[N+]1(C)CCN(S(=O)(=O)CCCCCCCCCC)CC1 [Example 77, 1-allyl-4-(decane-1-sulfonyl)-1-methyl-piperazin-1-ium bromide] | 3.47 | 1.55 | 0.83 | > 10 |
